Data taken from ChEMBL document CHEMBL5625206, “Design, synthesis, and evaluation of novel pleuromutilin aryl acrylate derivatives as promising broad-spectrum antibiotics especially for combatting multi-drug resistant gram-negative bacteria” (Eur J Med Chem, 2023).
Values after ≈ are worked out from the molar mass of the structure shown. Active and inactive are the calls of the source. The calls are words filed in the database; no cut-off is given here.

Assays:
Staphylococcus aureus [1] = experiment: Antibacterial activity against methicillin-resistant Staphylococcus aureus ATCC 33591 assessed as bacterial growth inhibition incubated for 24 hrs by CLSI based broth microdilution method; assay type: functional
Escherichia coli [2] = experiment: Antibacterial activity against Escherichia coli ATCC 25922 assessed as bacterial growth inhibition incubated for 24 hrs by CLSI based broth microdilution method; assay type: functional
Acinetobacter baumannii = experiment: Antibacterial activity against carbapenem-resistant Acinetobacter baumannii 882 clinical isolate assessed as bacterial growth inhibition incubated for 24 hrs by CLSI based broth microdilution method; assay type: functional
Staphylococcus aureus [3] = experiment: Bactericidal activity against methicillin-resistant Staphylococcus aureus ATCC 33591 at 2 to 8 times MIC incubated for 8 to 24 hrs by time kill assay relative to control; assay type: functional; conditions: time 8-24 hrs
Staphylococcus aureus [4] = experiment: Bactericidal activity against methicillin-resistant Staphylococcus aureus ATCC 33591 incubated for 24 hrs by time kill assay; assay type: functional, organism-based
[5] = system: Mycoplasmoides gallisepticum; experiment: Anti-mycoplasma activity against Mycoplasma gallisepticum MG-R-NCTC10115 assessed as bacterial growth inhibition incubated for 7 days; assay type: functional; conditions: MG-R-NCTC10115, 168 h, time 7 day
Staphylococcus aureus [6] = experiment: Inhibition of biofilm formation of methicillin-resistant Staphylococcus aureus ATCC 33591 at MIC incubated for 24 hrs by crystal violet staining based analysis relative to control; assay type: functional
Escherichia coli [7] = experiment: Inhibition of biofilm formation of Escherichia coli ATCC 25922 incubated for 24 hrs by crystal violet staining based analysis; assay type: functional, organism-based
Staphylococcus aureus [8] = experiment: Induction of cell damage in methicillin-resistant Staphylococcus aureus ATCC 33591 assessed as intracellular pH at MIC incubated for 30 mins by fluorescence based analysis (reference value: 6.34 +/- 0.10); assay type: functional; conditions: 0.5 h
Staphylococcus aureus [9] = experiment: Induction of cell damage in methicillin-resistant Staphylococcus aureus ATCC 33591 assessed as intracellular pH at 2 times MIC incubated for 30 mins by fluorescence based analysis (reference value: 6.34 +/- 0.10); assay type: functional; conditions: 0.5 h
Escherichia coli [10] = experiment: Depolarization of cell membrane in Escherichia coli ATCC 25922 by DiBAC4(3) probe based analysis; assay type: functional, organism-based
Staphylococcus aureus [11] = experiment: Disruption of cell membrane integrity in methicillin-resistant Staphylococcus aureus ATCC 33591 assessed as wrinkled cell surface at MIC incubated for 4 hrs by FESEM analysis; assay type: functional, organism-based
Escherichia coli [12] = experiment: Disruption of cell membrane integrity in Escherichia coli ATCC 25922 at 4 times MIC incubated for 4 hrs by FESEM analysis; assay type: functional, organism-based
Escherichia coli [13] = experiment: Disruption of cell membrane integrity in Escherichia coli ATCC 25922 assessed as appearance of pores on cell membrane at 4 times MIC incubated for 4 hrs by FESEM analysis; assay type: functional, organism-based
[14] = Toxicity in neutropenic Kunming mouse model infected with methicillin-resistant Staphylococcus aureus ATCC 33591 assessed as survival rate at 5 mg/kg, ip measured after 7 days relative to control; assay type: organism-based; conditions: in vivo, 168 h, time 7 day
Staphylococcus aureus [15] = experiment: Antibacterial activity against methicillin-resistant Staphylococcus aureus ATCC 33591 infected in neutropenic Kunming mouse model administered intraperitoneally measured after 7 days; assay type: functional; conditions: ATCC 33591, 168 h, route ip, time 7 day
Staphylococcus aureus [16] = experiment: Antibacterial activity against methicillin-resistant Staphylococcus aureus ATCC 33591 infected in neutropenic Kunming mouse model assessed as reduction in infection-induced inflammatory cell inflammation in lung at 10 mg/kg, ip measured after 7 days; assay type: functional, organism-based; conditions: time 7.0 day
Staphylococcus aureus [17] = experiment: Antibacterial activity against methicillin-resistant Staphylococcus aureus ATCC 33591 infected in neutropenic Kunming mouse model assessed as reduction in infection-induced lung damage at 20 mg/kg, ip measured after 7 days; assay type: functional, organism-based; conditions: time 7.0 day
Staphylococcus aureus [18] = experiment: Antibacterial activity against methicillin-resistant Staphylococcus aureus ATCC 33591 infected in neutropenic Kunming mouse model assessed as reduction in infection-induced inflammatory cell infiltration in liver at 20 mg/kg, ip measured after 7 days; assay type: functional, organism-based; conditions: time 7.0 day
[19] = Tmax in fasted Sprague-Dawley rat at 1 mg/kg, iv by LC-MS/MS analysis; assay type: ADME, organism-based; conditions: in vivo
[20] = MRT in fasted Sprague-Dawley rat at 1 mg/kg, iv by LC-MS/MS analysis; assay type: ADME, organism-based; conditions: in vivo
[21] = Toxicity in fasted male Sprague-Dawley rat assessed as body weight at 500 mg/kg, IG measured on same day (reference value: 212.7 +/- 13.2 g); assay type: organism-based; conditions: in vivo, po
[22] = Toxicity in fasted female Sprague-Dawley rat assessed as body weight at 224 mg/kg, IG measured after 7 days (reference value: 188.2 +/- 9.2 g); assay type: organism-based; conditions: in vivo, po, 168 h, time 7 day
[23] = Toxicity in fasted male Sprague-Dawley rat assessed as body weight at 331 mg/kg, IG measured after 7 days (reference value: 260.5 +/- 12.7 g); assay type: organism-based; conditions: in vivo, po, 168 h, time 7 day
[24] = Toxicity in fasted male Sprague-Dawley rat assessed as body weight at 500 mg/kg, IG measured after 7 days (reference value: 260.5 +/- 12.7 g); assay type: organism-based; conditions: in vivo, po, 168 h, time 7 day
[25] = Toxicity in fasted male Sprague-Dawley rat assessed as animal growth rate at 100 mg/kg, IG measured for 14 days (reference value: 46.53 +/- 3.19 g); assay type: organism-based; conditions: in vivo, po, 336 h, time 14 day
[26] = Toxicity in fasted female Sprague-Dawley rat assessed as animal growth rate at 100 mg/kg, IG measured for 14 days (reference value: 29.85 +/- 4.97 g); assay type: organism-based; conditions: in vivo, po, 336 h, time 14 day
[27] = Toxicity in fasted female Sprague-Dawley rat assessed as animal growth rate at 224 mg/kg, IG measured for 14 days (reference value: 29.85 +/- 4.97 g); assay type: organism-based; conditions: in vivo, po, 336 h, time 14 day
[28] = Toxicity in fasted female Sprague-Dawley rat assessed as animal growth rate at 331 mg/kg, IG measured for 14 days (reference value: 29.85 +/- 4.97 g); assay type: organism-based; conditions: in vivo, po, 336 h, time 14 day
[29] = Toxicity in fasted female Sprague-Dawley rat assessed as relative kidney weight ratio at 100 mg/kg, IG measured for 14 days (reference value: 0.802 +/- 0.031); assay type: organism-based; conditions: in vivo, po, 336 h, time 14 day
[30] = Toxicity in fasted female Sprague-Dawley rat assessed as relative kidney weight ratio at 148 mg/kg, IG measured for 14 days (reference value: 0.802 +/- 0.031); assay type: organism-based; conditions: in vivo, po, 336 h, time 14 day
[31] = Toxicity in fasted female Sprague-Dawley rat assessed as relative heart weight ratio at 148 mg/kg, IG measured for 14 days (reference value: 0.429 +/- 0.016); assay type: organism-based; conditions: in vivo, po, 336 h, time 14 day
[32] = Toxicity in fasted female Sprague-Dawley rat assessed as relative heart weight ratio at 224 mg/kg, IG measured for 14 days (reference value: 0.429 +/- 0.016); assay type: organism-based; conditions: in vivo, po, 336 h, time 14 day
[33] = Toxicity in fasted male Sprague-Dawley rat assessed as relative spleen weight ratio at 224 mg/kg, IG measured for 14 days (reference value: 0.246 +/- 0.037); assay type: organism-based; conditions: in vivo, po, 336 h, time 14 day
[34] = Toxicity in fasted male Sprague-Dawley rat assessed as relative spleen weight ratio at 500 mg/kg, IG measured for 14 days (reference value: 0.246 +/- 0.037); assay type: organism-based; conditions: in vivo, po, 336 h, time 14 day
[35] = Toxicity in fasted male Sprague-Dawley rat assessed as relative testis weight ratio at 331 mg/kg, IG measured for 14 days (reference value: 0.993 +/- 0.052); assay type: organism-based; conditions: in vivo, po, 336 h, time 14 day

## C=C[C@]1(C)C[C@@H](OC(=O)COC(=O)/C=C/c2ccc(N(C)C)cc2)[C@]2(C)[C@H](C)CC[C@]3(CCC(=O)[C@H]32)[C@@H](C)[C@@H]1O
Staphylococcus aureus [1]
  MIC: 2 µg/mL (≈ 3.63 µM)
Escherichia coli [2]
  MIC: 16 µg/mL (≈ 29 µM)
Acinetobacter baumannii
  MIC: 64 µg/mL (≈ 116 µM)
Staphylococcus aureus [3]
  Activity: 100%
Staphylococcus aureus [4]
  Activity: Dose-Dependent Effect
[5]
  MIC: 0.004 µg/mL (≈ 0.00725 µM)
Staphylococcus aureus [6]
  inhibition (INH): 56.51%
Escherichia coli [7]
  inhibition: Dose-Dependent Effect
Staphylococcus aureus [8]
  pH: 4.27
Staphylococcus aureus [9]
  pH: 2.75
Escherichia coli [10]
  Activity: Dose-Dependent Effect
Staphylococcus aureus [11]
  Activity: Active
Escherichia coli [12]
  Activity: Active
Escherichia coli [13]
  Activity: Active
[14]
  Survival: 30%
Staphylococcus aureus [15]
  ED50: 9.04 mg/kg
Staphylococcus aureus [16]
  Activity: inactive
Staphylococcus aureus [17]
  Activity: Active
Staphylococcus aureus [18]
  Activity: Active
[19]
  Tmax: 4.98 min
[20]
  MRT: 42.6 min
[21]
  Activity: 208 g
[22]
  Activity: 191.2 g
[23]
  Activity: 268 g
[24]
  Activity: 251.3 g
[25]
  Activity: 46.18%
[26]
  Activity: 31.22%
[27]
  Activity: 28.96%
[28]
  Activity: 27.6%
[29]
  Ratio: 0.81
[30]
  Ratio: 0.818
[31]
  Ratio: 0.447
[32]
  Ratio: 0.453
[33]
  Ratio: 0.229
[34]
  Ratio: 0.209
[35]
  Ratio: 1
